Experimental data taken from patent US20160166578A1, “METHOD FOR TREATING TYPE I AND TYPE II DIABETES” (PRISM Phama Ltd., priority 2012, published 2016).

Tests used:
[1] = Blood glucose levels in human clinical trial (patients with cancer and type II diabetes); type: in vivo; details: for blood glucose levels: 7 days continuous IV infusion, one week on and one week off
Method: Patients with cancer and type II diabetes were enrolled in a clinical trial (Safety and Efficacy Study in Subjects With Advanced Solid). The efficacy of Compound A for the treatment of diabetes was investigated by measurement of the blood glucose level of the patients. Conditions of patients enrolled in this study are as follows:
(Patient 101), with sigmoid colon cancer and diabetes. Compound A was administered at 40 mg/m^2/day, and Metformin Hydrochloride
(Patient 1103), with colon cancer and diabetes. Compound A was administered at 905 mg/m^2/day, in addition patient was treated with pioglitazone hydrochloride (Actos) and Metformin Hydrochloride.
Compound A administration was 7 days continuous IV infusion. The cycle of administration is one week on and one week off.
In addition to already prescribed drugs (pioglitazone hydrochloride or Metformin Hydrochloride) as basic treatment, Compound A with a defined dose for each patient was intravenously administrated for 7 continuous days followed by a 7-day rest period. This 14 days period with 7-day infusion period and 7-day rest period is defined as one cycle. Basic treatment for diabetes was continuously performed during this period. During the administration period (first, fifth and eighth day of each cycle) or after the administration, blood glucose levels were measured.

Wnt signaling pathway = assay: Reporter gene assay (SuperTOPFlash luciferase, STF reporter cell line); type: cell-based; details: Homo sapiens; at a concentration of 1 μM; Hek-293 STF reporter cells, LiCl stimulation, 24 hours; read-out: inhibitory activity
Method: Screening for inhibitory action of the Wnt signaling pathway was carried out according to the following procedure using an STF reporter cell line (human embryonic kidney cell line Hek-293 stably transfected with the firefly luciferase gene under the control of eight tandem repeats of the SuperTOPFlash reporter element; Cell 116:883-895, 2004).
Growth Medium: Dulbecco's Modified Eagle Medium (DMEM), 10% FBS, Pen-Strep, supplemented with 400 µg/ml G418 antibiotic to maintain selection of SuperTOPFlash driven luciferase gene.
On the day prior to assay, cells were split into a white opaque 96-well plate at 20,000 cells per well in 200 microliters of complete growth medium. The plate was incubated overnight at 37° C., 5% CO2 to allow the cells to attach to the surface.
The next day, the inhibitors were prepared to be tested in complete growth medium, without G418, at 2× the desired final concentration (all conditions are done in duplicate). The existing medium was carefully pipetted from each well using a multiple pipettor. 50 microliters of fresh growth medium (without G148) containing the inhibitor (Compound A) was added to each well. […]
After 24 hours, 100 microliters of BrightGlo reagent (Promega, Madison, Wis.) was added to each well. […] The plate was read using a Packard TopCount (PerkinElmer, Inc.).

[2] = Primate study in aged hyperglycemic monkeys (c-peptide, insulin, HbA1c); type: in vivo, Macaca fascicularis; details: 8 mg/Kg/Day continuous infusion i.p., 84 days
Method: Animals: aged Macaca fascicularis (21 to 27 years old) monkeys that have hyperglycemia, N=3.
Administration: Compound A (8 mg/Kg/Day) administrated by continuous infusion by i.p. from day 152 to 236 (84 days). Biochemical tests: c-peptide, insulin, and HbA1c levels were measured every week.
C-peptide, a byproduct of insulin production that is elevated in hyperglycemia, was measured using ELECSYS c-peptide assay (Roche Diagnostics, Hoffmann-La Roche Ltd.) with electrochemiluminescence assay (ECLIA) readout.
Insulin levels were measured using the E test II IRI, EIA method (TOSOH Corp., Tokyo). Insulin levels are elevated in hyperglycemia.
HbA1c or glycated hemoglobin (hemoglobin A1c) was measured to identify the average glycated hemoglobin, as a measure of plasma glucose concentration, over the previous months prior to the measurement. HbA1c levels are elevated in hyperglycemia. HbA1c was measured using the Nordia N HbA1c assay kit, enzyme method (Sekisui Medical Co., Ltd., Japan).

## C[C@H]1[C@H]2N(C(=O)CN(C)N2C(=O)NCc2ccccc2)[C@@H](Cc2ccc(OP(=O)(O)O)cc2)C(=O)N1Cc1cccc2cccnc12 [Compound A, 4-(((6S,9S,9aS)-1-(benzylcarbamoyl)-2,9-dimethyl-4,7-dioxo-8-(quinolin-8-ylmethyl)octahydro-1H-pyrazino[2,1-c][1,2,4]triazin-6-yl)methyl)phenyl dihydrogen phosphate]
[1]; Patient 101, 40 mg/m^2/day, with Metformin Hydrochloride, by the end of every cycle (FIG. 1)
  blood glucose levels: blood glucose levels are reduced
[1]; Patient 1103, 905 mg/m^2/day, with pioglitazone hydrochloride and Metformin Hydrochloride, by the end of every cycle (FIG. 2)
  blood glucose levels: blood glucose levels are reduced
[1]; concomitant use with known drugs for type II diabetes
  blood glucose level of patients with type II diabetes not adequately controlled by known drugs: significantly decreased
[1]; patients with type II diabetes, concomitant with known drugs for diabetes
  adverse effects of concomitant use: No adverse effects
Wnt signaling pathway
  inhibition at 1 µM: > 50%
[2]; FIG. 3
  c-peptide levels: c-peptide levels fall over time
[2]; FIG. 4
  insulin levels: insulin levels fall over time
[2]; FIG. 5
  HbA1c levels (ratio of mmol HbA1c to mol hemoglobin): HbA1c levels fall over time
